Data on one sequence can be found in patent US20090118194A1, “Measurement of melanocortin peptides and uses thereof” (Auckland UniServices Limited, priority 2002, published 2009).

Entries after “also recorded” stand apart in the source; their conditions may differ.

One experiment deals with neonatal rats. Put plainly: Body and organ weights of neonatal rats after subcutaneous injection. The class given is in vivo, rat. Conditions: s.c. 0.3 μg/g body weight/day; for body weight change (growth) over 14 days vs PBS: first 14 days of life. The method, then:
Adult female Wistar rats were housed in plastic cages and kept on a 12-h dark/light cycle. Animals received tap water and rat pellets ad libitum and were mated with males of the same strain. Each litter of new-born Wistar rats was culled to 9 pups per mother.
PBS or freshly prepared peptide solutions made up freshly in PBS containing 0.1% BSA were injected subcutaneously once per day in a volume of 40 μl for 14 days. Animals were injected on day 14 and 1 h later they were euthanised using sodium pentobarbital.
Rats were weighed at birth and then every 2 days prior to injection of peptides. Body weights were recorded on day 14 before injection and again when they were euthanised. The following organs were dissected and weighed: brain, heart, kidney, liver, lung, spleen.
Liner relationships between organ weights and body weights was tested using regression analysis of the organ weights measured against final body weight on day 14. There were significant linear relationships between organ weights and body weights for the following tissues: brain, spleen, heart, kidney and liver. There was no significant regression between lung weight and body weight. For those organs where their weight was linearly correlated to body weight, treatment effects on organ weight changes were analysed using ANCOVA with body weight as the co-variate.
Differences in body weight were analysed using a General Linear Model with repeated measures. Significance was assumed at the P<0.05 level.

Experiment [1] has as its system food deprived Wistar rats. Put plainly: Food intake after i.c.v. injection of melanocortin peptides. The class given is in vivo, rat. The method, then: Adult male Wistar rats (50-60 days old, 230-260 g at the beginning of the experiment) were maintained in individual cages under controlled temperature (23° C.) and reverse lighting (1000-2200 lights off). Standard laboratory chow (NZ Stockfeed Ltd) and tap water were available ad libitum during the adaptation phase. During this time animals were handled daily to minimize the effects of stress on food intake during experiments. Body weight was measured daily before, and one week after cannulation. Any animal showing signs of illness, such as weight loss, poor grooming, or decreased activity, was removed from the study. All animal procedures undertaken were approved by the Animal Ethics Committee of the University of Auckland.
After 7 days of adaptation, animals were subject to cannula placement surgery under 3% halothane/O2 anaesthesia. A permanent lateral ventricle infusion cannula (6-mm 21 gauge) was placed on top of the dura at 7.5 mm anterior from stereotaxic zero, 1.5 mm to the right of the mid-sagittal line, and secured to the skull with dental cement. Animals were allowed at least 7 days to recover from surgery before injections.
Rats were fasted overnight before the day of experiment.
Under 3% halothane/O2 anaethesia rats were infused icv through a 12-mm 27-gauge needle, connected to 20-cm length tubing attached to a syringe. Infusions were performed in the early dark phase between 1000 and 1130 hr using motor driven infusion pumps at a rate of 1.0 μl/min over 10 min. Movement of a 0.2 ml air-space introduced between the 0.9% saline solution filling the PE10 tubing-syringe system and the test solution served as an indicator of a successful infusion. […]
Following infusion, the cannula was left in place for 1 min, removed, and the animal returned to its cage with fresh pre-weighed food and water. At 3 h post-injection, the pellets and collected food spillage in the cage, were weighed and this weight was subtracted from the initial weight to quantify the amount of food eaten over 3 h.
The significance of treatment effects was evaluated using one-way ANOVA (Systat10 package)

The subject of another experiment is 3T3 L1 adipocytes. Nature of the experiment: Leptin production in differentiated 3T3 L1 adipocytes (peptide stimulation assay). The format is cell-based, murine. Conditions: for mean leptin level: one assay; for Leptin Response, Mean: 4 hours, 2 assays combined. The method, then: • 2.1 The objective of this study was to determine the effects of a-MSH and desacetyl a-MSH on leptin and triglyceride production in murine 3T3 L1 adipocytes. • 2.2 Pre-adipocytes were seeded in 6-well plates and 2 days post confluence (Day 2) were differentiated with […] indomethacin+5 ug/mL insulin (described in previous documents). • 2.3 On Day 13 adipocytes were stimulated with 4 doses each of a-MSH and desacetyl a-MSH (or no peptide added) for 4 hours. • 2.4 Medium was removed from the wells and leptin and triglyceride levels measured. • 2.5 Intracytoplasmic lipid accumulation was measured by staining with Oil red O.
• 4.1 Medium=a-MEM+0.5% BSA (100 mL a-MEM+0.5 g BSA) • 4.2 Doses of a-MSH and da-MSH (stocks in −80° C. freezer=1 ug/ul), using MW of a-MSH. • 1 M=1665 g/L=1665 mg/mL • 1 mM=1.665 mg/mL • 1 uM=1.665 ug/mL • 1.665 ug/mL=3.3 ug/2 mL in each well • 1/10 dilution of 1 ug/ul (stock)=0.1 ug/ul. 33 ul=3.3 ug. • Prepare 1/10 dilution of freezer stock (1 ug/ul) to make 0.1 ug/ul, using a-MEM+0.5% BSA as diluent. • Make 3 serial dilutions of 1/10 to add 33 ul to each well in 6-well plate. • Doses are in triplicate wells, so require 3×33=99 ul for each dose.
• 5.1 Assay is performed on Day 14 after initiation of cell differentiation. On day prior to stimulation assay, replace growth medium+insulin with medium prepared in 4.1 (a-MEM+0.5% BSA) and return plates to incubator. • 5.2 On Day of assay prepare peptide solutions as in 4.2 and IBMX as in 4.3. • 5.3 Replace medium with the same medium supplemented with 1 mM IBMX (as in 4.3) and allow cells to equilibrate in incubator for 10 minutes. • 5.4 Add increasing concentrations of peptides (or none), 33 ul per well, swirl gently to mix, and place plates in incubator for 4 hours. • 5.5 At the end of the incubation remove media from wells and store triplicate aliquots in −20° C. freezer for measurement of leptin and triglycerides. • 5.6 Stain adipocytes in wells with Oil Red O as in “Oil Red O Staining of Adipocyte” document. • 5.7 After eluting the stain, remove cells from wells as in 6.0 for measuring total protein.
Leptin Assays Quantikine M kit (R & D Systems Inc, UK # MOB00 Abingdon, Oxon) and DSL kit (DSL #10-24100, Australia PTY Ltd, NSW, Australia) were used. […] The Quantikine M kit is preferred as it is more sensitive and precise.

“SYSMEHFRWGKPV [desacetyl-α-MSH, non-acetylated form of α-MSH, obtained from Bachem]”: the “brain weight vs PBS” value in the experiment on neonatal rats (14 days) is “significantly decreased brain weight”. Further, in the experiment on neonatal rats (14 days), the “kidney weight vs PBS” value was “no significant effect on kidney weight”. The “spleen weight vs PBS” value in the experiment on neonatal rats (14 days) is “significantly increased spleen weight”. The figures for the “body weight change (growth) over 14 days vs PBS” value in the experiment on neonatal rats and in the experiment with neonatal rats (listed as Desacetyl-α-MSH) were “grew significantly slower” and “significantly slowed body weight change”, respectively. In addition, the “body weight catch up compared to PBS treated rats” value with neonatal rats (from day 12) is listed as “appeared to catch up on body weight from day 12”. The “effect on food intake over 3 h vs PBS” value in experiment [1] (10 μg i.c.v., first study) is recorded as “not significantly different from the PBS treated control group”; in experiment [1] (10 μg i.c.v., first study, listed as Desacetyl-α-MSH), “no significant effect on feeding”; in experiment [1] (50 μg i.c.v., second study) it was “significantly reduce food intake; also recorded: significantly decreased food intake”. In the experiment on 3T3 L1 adipocytes (1 nM single peptide), the “effect on leptin production” value is “appears to reduce leptin production”. Further, the mean leptin level in the experiment with 3T3 L1 adipocytes (1 nM single peptide) came out at 480.4 pg/mL; in the experiment with 3T3 L1 adipocytes (100 nM single peptide), 528.0 pg/mL. In addition, the “Leptin Response, Mean” value with 3T3 L1 adipocytes (1 nM) is 95.4 % of control; in the experiment with 3T3 L1 adipocytes (10 nM), 96.3 % of control; in the experiment with 3T3 L1 adipocytes (100 nM), 97.7 % of control; with 3T3 L1 adipocytes (1000 nM), 109.4 % of control.
